Experimental data from patent US20250163104A1, “MACROCYCLIC IMMUNOMODULATORS” (priority 2021, published 2025).
Where a SMILES comes first, the peptide text is derived from it. Bridges are numbered along the chain shown (N, C = ends). [ ]: non-standard residue; d: D form. The star is where a group is joined. Phe(4-COOH) = N[C@@H](Cc1ccc(C(=O)O)cc1)C(=O)O; Bip = N[C@@H](Cc1ccc(-c2ccccc2)cc1)C(=O)O; Phe(3-Me) = Cc1cccc(C[C@H](N)C(=O)O)c1; Val(3-OH) = CC(C)(O)[C@H](N)C(=O)O; hPhe = N[C@@H](CCc1ccccc1)C(=O)O; Cha = N[C@@H](CC1CCCCC1)C(=O)O; hSer = N[C@@H](CCO)C(=O)O; Carboxymethyl = O=C(O)C*; Orn = NCCC[C@H](N)C(=O)O; Dab = NCC[C@H](N)C(=O)O; Nva = CCC[C@H](N)C(=O)O; NHCH2CH2OMe = COCCN*

target: T1, human PD-1 / PD-L1-Ig binding on Jurkat cell line over-expressing human PD-1 (Jurkat-PD-1) (Homo sapiens, UniProt Q15116); assay: Jurkat-PD-1 Cell Binding High-Content Screening Assay (CBA); type: cell-based; settings: Jurkat-PD-1 cells, PE-labeled PD-L1-Ig 20 nM final; read-out: Jurkat HPD1_PDL1 IC50
T1 construct: expressed in transfected cells; host or cells: Jurkat
T1 sequence (Q15116 25-288): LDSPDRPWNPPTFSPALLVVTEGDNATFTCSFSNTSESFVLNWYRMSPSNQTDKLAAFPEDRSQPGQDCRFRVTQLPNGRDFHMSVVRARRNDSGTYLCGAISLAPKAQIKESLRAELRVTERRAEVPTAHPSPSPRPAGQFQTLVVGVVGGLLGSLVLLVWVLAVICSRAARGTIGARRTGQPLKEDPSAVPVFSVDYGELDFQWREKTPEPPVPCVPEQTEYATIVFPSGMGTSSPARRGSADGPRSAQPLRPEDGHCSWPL
Summary of the method: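 Binding of fluorescent PD-L1-Ig (phycoerythrin linked via the Ig tag, 20 nM final) to PD-1-overexpressing Jurkat cells was imaged after a 2 h, 37° C compound pretreatment and 1 hour ligand incubation.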

Row | SMILES | IC50
1 | COCCNC(=O)[C@H](CCN)NC(=O)[C@@H]1CSCC(=O)N[C@@H]([C@@H](C)O)C(=O)N[C@@H](Cc2ccc(C(=O)O)cc2)C(=O)N[C@@H](CC(=O)O)C(=O)N[C@@H](Cc2cccc(C)c2)C(=O)N[C@@H](Cc2ccc(OCC(=O)O)cc2)C(=O)N[C@@H](Cc2ccc(-c3ccccc3)cc2)C(=O)N[C@@H](Cc2ccc(OCC(=O)O)cc2)C(=O)N[C@@H](CCCN)C(=O)N[C@H](CC(C)C)C(=O)N[C@@H](CCN)C(=O)N[C@@H](CC2CCCCC2)C(=O)N[C@@H](C(C)(C)O)C(=O)N[C@@H](CO)C(=O)N1 [Compound 2077] ({CH2CO}-T[Phe(4-COOH)]D[Phe(3-Me)]Y(Carboxymethyl)[Bip]Y(Carboxymethyl)[Orn][dL][Dab][Cha][Val(3-OH)]SC[Dab]-NHCH2CH2OMe; thioether N-14) | 7.3 nM
2 | COCC[C@@H]1NC(=O)CSC[C@@H](C(=O)N[C@@H](CCN)C(N)=O)NC(=O)[C@H](CO)NC(=O)[C@H](C(C)(C)O)NC(=O)[C@H](CC2CCCCC2)NC(=O)[C@H](CCN)NC(=O)[C@@H](CC(C)C)NC(=O)[C@H](CCCN)NC(=O)[C@H](Cc2ccc(OCC(=O)O)cc2)NC(=O)[C@H](Cc2ccc(-c3ccccc3)cc2)NC(=O)[C@H](Cc2ccc(OCC(=O)O)cc2)NC(=O)[C@H](Cc2cccc(C)c2)NC(=O)[C@H](CC(=O)O)NC(=O)[C@H](Cc2ccc(C(=O)O)cc2)NC1=O [Compound 2079] ({CH2CO}-[hSer](Me)[Phe(4-COOH)]D[Phe(3-Me)]Y(Carboxymethyl)[Bip]Y(Carboxymethyl)[Orn][dL][Dab][Cha][Val(3-OH)]SC[Dab]-NH2; thioether N-14) | 6.3 nM

Further compounds by falling IC50, results first:

Row | IC50 | SMILES
3 | 111 nM | Cc1cccc(C[C@@H]2NC(=O)[C@H](CC(=O)O)NC(=O)[C@H](Cc3ccc(C(=O)O)cc3)NC(=O)[C@H](CCc3ccccc3)NC(=O)CSC[C@@H](C(=O)N[C@@H](CCN)C(N)=O)NC(=O)[C@H](CO)NC(=O)[C@H](C(C)(C)O)NC(=O)[C@H](CC3CCCCC3)NC(=O)[C@H](CCN)NC(=O)[C@@H](CC(C)C)NC(=O)[C@H](CCCN)NC(=O)[C@H](Cc3ccc(OCC(=O)O)cc3)NC(=O)[C@H](Cc3ccc(-c4ccccc4)cc3)NC(=O)[C@H](Cc3ccc(OCC(=O)O)cc3)NC2=O)c1 [Compound 2081] ({CH2CO}-[hPhe][Phe(4-COOH)]D[Phe(3-Me)]Y(Carboxymethyl)[Bip]Y(Carboxymethyl)[Orn][dL][Dab][Cha][Val(3-OH)]SC[Dab]-NH2; thioether N-14)
4 | 4.9 nM | COC[C@@H]1NC(=O)CSC[C@@H](C(=O)N[C@@H](CCN)C(N)=O)NC(=O)[C@H](CO)NC(=O)[C@H](C(C)(C)O)NC(=O)[C@H](CC2CCCCC2)NC(=O)[C@H](CCN)NC(=O)[C@@H](CC(C)C)NC(=O)[C@H](CCCN)NC(=O)[C@H](Cc2ccc(OCC(=O)O)cc2)NC(=O)[C@H](Cc2ccc(-c3ccccc3)cc2)NC(=O)[C@H](Cc2ccc(OCC(=O)O)cc2)NC(=O)[C@H](Cc2cccc(C)c2)NC(=O)[C@H](CC(=O)O)NC(=O)[C@H](Cc2ccc(C(=O)O)cc2)NC1=O [Compound 2078] ({CH2CO}-S(Me)[Phe(4-COOH)]D[Phe(3-Me)]Y(Carboxymethyl)[Bip]Y(Carboxymethyl)[Orn][dL][Dab][Cha][Val(3-OH)]SC[Dab]-NH2; thioether N-14)
5 | 4.2 nM | CCC[C@@H]1NC(=O)CSC[C@@H](C(=O)N[C@@H](CCN)C(N)=O)NC(=O)[C@H](CO)NC(=O)[C@H](C(C)(C)O)NC(=O)[C@H](CC2CCCCC2)NC(=O)[C@H](CCN)NC(=O)[C@@H](CC(C)C)NC(=O)[C@H](CCCN)NC(=O)[C@H](Cc2ccc(OCC(=O)O)cc2)NC(=O)[C@H](Cc2ccc(-c3ccccc3)cc2)NC(=O)[C@H](Cc2ccc(OCC(=O)O)cc2)NC(=O)[C@H](Cc2cccc(C)c2)NC(=O)[C@H](CC(=O)O)NC(=O)[C@H](Cc2ccc(C(=O)O)cc2)NC1=O [Compound 2080] ({CH2CO}-[Nva][Phe(4-COOH)]D[Phe(3-Me)]Y(Carboxymethyl)[Bip]Y(Carboxymethyl)[Orn][dL][Dab][Cha][Val(3-OH)]SC[Dab]-NH2; thioether N-14)
